Experiment [1] deals with N. gonorrhoeae FA1090-Q1 (GyrA^S91F/D95G, ParC WT). In words: MIC by agar dilution, fluoroquinolone-resistant GyrA^S91F/D95G strain. In kind it is cell-based. The settings on record: Neisseria gonorrhoeae. As for the experimental part: Minimum inhibitory concentration (MIC) of test compounds was determined by an agar dilution method, the reference testing method for N. gonorrhoeae according to the standards of the Clinical and Laboratory Standards Institute and the CDC.
For orientation: In agar dilution, organisms are placed on agar that contains the substance at set levels.

Experiment [2] relates to N. gonorrhoeae FA1090 (ATCC 700825). In words: MIC by agar dilution, parental strain FA1090. The settings on record: Neisseria gonorrhoeae, ATCC700825, parental strain FA1090, GyrA WT / ParC WT. In kind it is cell-based. As for the experimental part: A series of isogenic N. gonorrhoeae strains was constructed that carried the specific target mutations GyrA^A92T or GyrA^D90N either alone or in combination with ParC^D86N or GyrA^S91F/D95G in a ciprofloxacin-susceptible strain, FA1090 (ATCC 700825).
All N. gonorrhoeae isolates were cultured and grown on GC agar plates or in fastidious broth (Remel, 07664). Minimum inhibitory concentration (MIC) of test compounds was determined by an agar dilution method, the reference testing method for N. gonorrhoeae according to the standards of the Clinical and Laboratory Standards Institute and the CDC. MIC values were determined after incubation at 37 °C for 48 h in 5% CO2.

≈ marks a conversion by molar mass, not a printed value.

As a reminder, the MIC is the least concentration at which growth counts as inhibited.

Turning to `O=C(O)c1cn(C2CC2)c2cc(N3CCNCC3)c(F)cc2c1=O` [ciprofloxacin], the results for the MIC in experiment [1] and in experiment [2] were 0.25 µg/mL (≈ 0.754 µM) and 0.004 µg/mL, respectively.

The record behind these values is paper PMC12624743 (ACS Infectious Diseases, 2025).
